Experiments:
[1] = molecular target: T1, GRK5 (Homo sapiens, UniProt P34947); experiment: Lance Kinase Activity Assay, GRK5; conditions: biochemical Lance kinase activity assay; class symbols A-F; read-out: GRK5 LANCE Assay (IC-50)
T1 construct: purchased Thermo Scientific
Summary of the method: (§1)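 IC50s from sigmoidal dose-response over 0.0025-10 μM compound, with phosphorylated ULight substrate detected by Eu anti-phospho antibody FRET after EDTA quench.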

[2] = system: neonatal rat ventricular cardiac myocytes (NRVCMs); experiment: In vitro cardiomyocyte hypertrophy assay; type: cell-based, Wistar rats; conditions: inhibition of cellular hypertrophy, NRVCMs stimulated with phenylephrine 20 μM and leukemia inhibitory factor 50 ng/ml, 96 h, read-out: Hypertrophy Assay (IC-50)
Protocol: 5-6 days old Wistar rats were sacrificed by decapitation and neonatal rat ventricular cardiac myocytes (NRVCMs) were prepared using the Neonatal heart dissociation kit (Miltenyi Biotec) according to the manufacturer's instructions. The cardiac single cell suspension was resuspended in DMEM low glucose medium supplemented with 2% fetal bovine serum (FBS) and 50 μg/ml penicillin/streptomycin. 1500 cells/well were seeded on 0.1% gelatin-coated 384-well plates and incubated in medium at 37° C. and 5% CO2 for 24 h prior to the addition of test compounds to the cells at titrated concentrations. Cellular hypertrophy was then stimulated by adding phenylephrine and leukemia inhibitory factor at final concentrations of 20 μM and 50 ng/ml, respectively, and the cells were incubated for another 96 h. For immunocytochemistry, cells were fixed with 4% formaldehyde on day 5 of compound treatment and cardiomyocytes were stained with antibodies against a-actinin while cell nuclei were stained with DAPI. Image acquisition and phenotypic analysis was performed using an Image-Xpress Micro XL automated microscope (Molecular Devices).
Inhibition of cellular hypertrophy is indicated as IC50 [nM]. Compounds having an activity designated as “A” provided an IC50≤500 nM; compounds having an activity designated as “B” provided an 500 nM<IC50≤1000 nM; compounds having an activity designated as “C” provided an IC50>1000 nM.

[3] = molecular target: T2, GRK2 (Homo sapiens, UniProt P25098); experiment: Lance Kinase Activity Assay, GRK2; conditions: biochemical Lance kinase activity assay; class symbols A-F; read-out: GRK2 LANCE Assay (IC-50)
T2 construct: purchased Thermo Scientific
T2 sequence (P25098 1-689): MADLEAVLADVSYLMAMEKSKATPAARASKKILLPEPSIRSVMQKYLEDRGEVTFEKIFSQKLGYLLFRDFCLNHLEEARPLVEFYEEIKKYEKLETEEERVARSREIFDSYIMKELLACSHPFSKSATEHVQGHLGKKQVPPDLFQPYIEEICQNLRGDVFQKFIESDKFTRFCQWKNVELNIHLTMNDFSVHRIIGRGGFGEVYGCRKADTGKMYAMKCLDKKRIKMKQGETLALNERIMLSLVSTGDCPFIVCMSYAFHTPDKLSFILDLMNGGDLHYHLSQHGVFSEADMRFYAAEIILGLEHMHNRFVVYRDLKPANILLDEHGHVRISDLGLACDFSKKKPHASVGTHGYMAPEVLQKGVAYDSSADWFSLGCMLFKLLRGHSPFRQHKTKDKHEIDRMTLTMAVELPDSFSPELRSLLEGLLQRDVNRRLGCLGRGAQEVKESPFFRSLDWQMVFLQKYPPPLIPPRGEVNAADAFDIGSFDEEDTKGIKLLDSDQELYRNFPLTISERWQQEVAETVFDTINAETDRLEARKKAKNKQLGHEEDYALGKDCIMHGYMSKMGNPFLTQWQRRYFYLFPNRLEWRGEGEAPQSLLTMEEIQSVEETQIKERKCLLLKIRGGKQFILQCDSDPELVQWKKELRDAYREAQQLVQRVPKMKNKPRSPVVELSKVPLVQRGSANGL
Summary of the method: as §1

T1 sequence (P34947 whole entry): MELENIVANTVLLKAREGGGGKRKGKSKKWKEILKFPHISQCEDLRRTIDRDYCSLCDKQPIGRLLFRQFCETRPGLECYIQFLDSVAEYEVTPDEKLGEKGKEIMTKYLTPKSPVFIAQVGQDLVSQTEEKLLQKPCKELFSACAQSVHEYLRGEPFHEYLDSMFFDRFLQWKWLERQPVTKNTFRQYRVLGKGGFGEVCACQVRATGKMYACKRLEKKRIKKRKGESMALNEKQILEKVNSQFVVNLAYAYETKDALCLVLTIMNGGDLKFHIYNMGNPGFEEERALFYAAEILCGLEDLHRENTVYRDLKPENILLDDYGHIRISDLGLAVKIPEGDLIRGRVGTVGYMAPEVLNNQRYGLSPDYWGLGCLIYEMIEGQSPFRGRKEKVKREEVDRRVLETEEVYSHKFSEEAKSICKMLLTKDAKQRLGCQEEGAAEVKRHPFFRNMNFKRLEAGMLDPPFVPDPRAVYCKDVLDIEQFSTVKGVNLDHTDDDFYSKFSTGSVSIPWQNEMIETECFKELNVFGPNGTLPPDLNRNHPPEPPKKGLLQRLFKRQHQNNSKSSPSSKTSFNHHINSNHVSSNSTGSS

Row | SMILES | IC50 [1] | IC50 [2] | IC50 [3]
1 | COc1ccc([C@@H](C)NC(=O)/C(C#N)=C/c2c[nH]c3ncc(-c4cnn(C5CCNCC5)c4)cc23)cc1OC [Example 89, (R,E)-2-cyano-N-(1-(3,4-dimethoxyphenyl)ethyl)-3-(5-(1-(piperidin-4-yl)-1H-pyrazol-4-yl)-1H-pyrrolo[2,3-b]pyridin-3-yl)acrylamide] | ≤ 0.05 µM | > 1 µM | 1 to 10 µM
2 | COc1ccc([C@@H](CO)NC(=O)/C(C#N)=C/c2c[nH]c3ncc(-c4cnn(C)c4)cc23)cc1OC [Example 92, (S,E)-2-cyano-N-(1-(3,4-dimethoxyphenyl)-2-hydroxyethyl)-3-(5-(1-methyl-1H-pyrazol-4-yl)-1H-pyrrolo[2,3-b]pyridin-3-yl)acrylamide] | ≤ 0.05 µM | > 1 µM | 1 to 10 µM
3 | COc1cc([C@@H](C)NC(=O)/C(C#N)=C/c2c[nH]c3ncc(-c4cnn(C)c4)cc23)ccc1F [Example 94, (R,E)-2-cyano-N-(1-(4-fluoro-3-methoxyphenyl)ethyl)-3-(5-(1-methyl-1H-pyrazol-4-yl)-1H-pyrrolo[2,3-b]pyridin-3-yl)acrylamide] | ≤ 0.05 µM | ≤ 0.5 µM | 0.05 to 0.1 µM
4 | C[C@@H](NC(=O)/C=C/c1c[nH]c2ncc(-c3cnn(C)c3)cc12)c1ccc2c(c1)OCO2 [Example 246, (R,E)-N-(1-(benzo[d][1,3]dioxol-5-yl)ethyl)-3-(5-(1-methyl-1H-pyrazol-4-yl)-1H-pyrrolo[2,3-b]pyridin-3-yl)acrylamide] | ≤ 0.05 µM |  | 1 to 10 µM
5 | COc1ccc([C@@H](C)NC(=O)/C=C/c2c[nH]c3ncc(-c4cc(Cl)cc(S(C)(=O)=O)c4)cc23)cc1OC [Example 247, (R,E)-3-(5-(3-chloro-5-(methylsulfonyl)phenyl)-1H-pyrrolo[2,3-b]pyridin-3-yl)-N-(1-(3,4-dimethoxyphenyl)ethyl)acrylamide] | ≤ 0.05 µM |  | > 10 µM
6 | COc1ccc([C@@H](C)NC(=O)/C=C/c2c[nH]c3ncc(-c4cc(S(C)(=O)=O)ccc4C)cc23)cc1OC [Example 248, (R,E)-N-(1-(3,4-dimethoxyphenyl)ethyl)-3-(5-(2-methyl-5-(methylsulfonyl)phenyl)-1H-pyrrolo[2,3-b]pyridin-3-yl)acrylamide] | ≤ 0.05 µM |  | > 10 µM
7 | COc1ccc([C@@H](C)NC(=O)/C=C/c2c[nH]c3ncc(-c4cc(F)cc(S(C)(=O)=O)c4)cc23)cc1OC [Example 249, (R,E)-N-(1-(3,4-dimethoxyphenyl)ethyl)-3-(5-(3-fluoro-5-(methylsulfonyl)phenyl)-1H-pyrrolo[2,3-b]pyridin-3-yl)acrylamide] | ≤ 0.05 µM |  | 1 to 10 µM
8 | COc1ccc([C@@H](C)NC(=O)/C=C/c2c[nH]c3ncc(-c4ccnc(S(C)(=O)=O)c4)cc23)cc1OC [Example 250, (R,E)-N-(1-(3,4-dimethoxyphenyl)ethyl)-3-(5-(2-(methylsulfonyl)pyridin-4-yl)-1H-pyrrolo[2,3-b]pyridin-3-yl)acrylamide] | ≤ 0.05 µM |  | 1 to 10 µM
9 | COc1ccc([C@@H](C)NC(=O)/C=C/c2c[nH]c3ncc(-c4cccc(S(C)(=N)=O)c4)cc23)cc1OC (stereo partly drawn) [Example 251, (E)-N-((R)-1-(3,4-dimethoxyphenyl)ethyl)-3-(5-(3-(S-methylsulfonimidoyl)phenyl)-1H-pyrrolo[2,3-b]pyridin-3-yl)acrylamide] | ≤ 0.05 µM |  | 0.5 to 1 µM
10 | COc1ccc(C(C)NC(=O)/C=C/c2c[nH]c3ncc(-c4cnn(C)c4)cc23)cc1C1CC1 (stereo not drawn) [Example 253, (E)-N-(1-(3-cyclopropyl-4-methoxyphenyl)ethyl)-3-(5-(1-methyl-1H-pyrazol-4-yl)-1H-pyrrolo[2,3-b]pyridin-3-yl)acrylamide] | 0.05 to 0.1 µM |  | > 10 µM
11 | COc1cc(C(C)NC(=O)/C=C/c2c[nH]c3ncc(-c4cnn(C)c4)cc23)ccc1[S+](C)[O-] (stereo not drawn) [Example 255, (E)-N-(1-(3-methoxy-4-(methylsulfinyl)phenyl)ethyl)-3-(5-(1-methyl-1H-pyrazol-4-yl)-1H-pyrrolo[2,3-b]pyridin-3-yl)acrylamide] | 0.1 to 0.5 µM |  | > 10 µM
12 | COc1cc(C(C)NC(=O)/C(C#N)=C/c2c[nH]c3ncc(-c4cnn(C)c4)cc23)ccc1[S+](C)[O-] (stereo not drawn) [Example 256, (E)-2-cyano-N-(1-(3-methoxy-4-(methylsulfinyl)phenyl)ethyl)-3-(5-(1-methyl-1H-pyrazol-4-yl)-1H-pyrrolo[2,3-b]pyridin-3-yl)acrylamide] | 0.05 to 0.1 µM |  | 1 to 10 µM
13 | C[C@@H](NC(=O)/C=C/c1c[nH]c2ncc(-c3cnn(C)c3)cc12)c1ccc(F)c(F)c1 [Example 257, (R,E)-N-(1-(3,4-difluorophenyl)ethyl)-3-(5-(1-methyl-1H-pyrazol-4-yl)-1H-pyrrolo[2,3-b]pyridin-3-yl)acrylamide] | ≤ 0.05 µM |  | 0.1 to 0.5 µM
14 | C[C@@H](NC(=O)/C(C#N)=C/c1c[nH]c2ncc(-c3cnn(C)c3)cc12)c1ccc(F)c(F)c1 [Example 258, (R,E)-2-cyano-N-(1-(3,4-difluorophenyl)ethyl)-3-(5-(1-methyl-1H-pyrazol-4-yl)-1H-pyrrolo[2,3-b]pyridin-3-yl)acrylamide] | ≤ 0.05 µM |  | 0.1 to 0.5 µM
15 | COc1ccc([C@@H](C)NC(=O)/C=C/c2c[nH]c3ncc(-c4cc(S(C)(=O)=O)ccn4)cc23)cc1OC [Example 259, (R,E)-N-(1-(3,4-dimethoxyphenyl)ethyl)-3-(5-(4-(methylsulfonyl)pyridin-2-yl)-1H-pyrrolo[2,3-b]pyridin-3-yl)acrylamide] | ≤ 0.05 µM |  | 1 to 10 µM
16 | Cc1noc2ccc([C@@H](C)NC(=O)/C=C/c3c[nH]c4ncc(-c5cnn(C)c5)cc34)cc12 [Example 260, (R,E)-3-(5-(1-methyl-1H-pyrazol-4-yl)-1H-pyrrolo[2,3-b]pyridin-3-yl)-N-(1-(3-methylbenzo[d]isoxazol-5-yl)ethyl)acrylamide] | ≤ 0.05 µM |  | 0.05 to 0.1 µM
17 | Cc1nn(C)c2cc([C@@H](C)NC(=O)/C(C#N)=C/c3c[nH]c4ncc(-c5cnn(C)c5)cc34)ccc12 [Example 261, (R,E)-2-cyano-N-(1-(1,3-dimethyl-1H-indazol-6-yl)ethyl)-3-(5-(1-methyl-1H-pyrazol-4-yl)-1H-pyrrolo[2,3-b]pyridin-3-yl)acrylamide] | ≤ 0.05 µM |  | > 10 µM
18 | Cc1nn(C)c2ccc([C@@H](C)NC(=O)/C(C#N)=C/c3c[nH]c4ncc(-c5cnn(C)c5)cc34)cc12 [Example 262, (R,E)-2-cyano-N-(1-(1,3-dimethyl-1H-indazol-5-yl)ethyl)-3-(5-(1-methyl-1H-pyrazol-4-yl)-1H-pyrrolo[2,3-b]pyridin-3-yl)acrylamide] | ≤ 0.05 µM |  | > 10 µM
19 | COc1ccc([C@@H](C)NC(=O)/C=C/c2c[nH]c3ncc(-c4cccc([S+]([O-])C(F)(F)F)c4)cc23)cc1OC (stereo partly drawn) [Example 263, (E)-N-((R)-1-(3,4-dimethoxyphenyl)ethyl)-3-(5-(3-((trifluoromethyl)sulfinyl)phenyl)-1H-pyrrolo[2,3-b]pyridin-3-yl)acrylamide] | ≤ 0.05 µM |  | > 10 µM
20 | COc1ccc([C@@H](C)NC(=O)/C=C/c2c[nH]c3ncc(-c4cccc(S(=O)(=O)C(F)(F)F)c4)cc23)cc1OC [Example 264, (R,E)-N-(1-(3,4-dimethoxyphenyl)ethyl)-3-(5-(3-((trifluoromethyl)sulfonyl)phenyl)-1H-pyrrolo[2,3-b]pyridin-3-yl)acrylamide] | ≤ 0.05 µM |  | > 10 µM
21 | COc1cc(C(C)NC(=O)/C=C/c2c[nH]c3ncc(-c4cnn(C)c4)cc23)cnc1OC (stereo not drawn) [Example 265, (E)-N-(1-(5,6-dimethoxypyridin-3-yl)ethyl)-3-(5-(1-methyl-1H-pyrazol-4-yl)-1H-pyrrolo[2,3-b]pyridin-3-yl)acrylamide] | 0.05 to 0.1 µM |  | > 10 µM
